# Source: ChEMBL document CHEMBL1127887, “Synthesis and in vitro cardiovascular activity of 4-aryl-2,3,3a,4-tetrahydro-1h-pyrrolo[2,1-c][1,4]benzothiazin-1-ones and 7-acetoxy-6-phenyl-7a,8,9,10-tetrahydropyrrolo [2,1,-d][1,5]benzothiazepin-10-one” (Bioorg Med Chem Lett, 1994)
# Columns and labels:
# Cavia porcellus [1] = species: Cavia porcellus; test: Negative chronotropic activity on isolated guinea pig right atrium at 5x10E-5 mol/L concentration was determined; type: functional, Cardiac atrium
# Cavia porcellus [2] = species: Cavia porcellus; test: Negative inotropic activity on isolated guinea pig left atrium at 10E-4 mol/L concentration was determined; type: functional, Cardiac atrium
# Cavia porcellus [3] = species: Cavia porcellus; test: Negative inotropic potency on isolated guinea pig left atrium; type: functional, Cardiac atrium
# Cavia porcellus [4] = species: Cavia porcellus; test: Calcium antagonist activity on K+ depolarized guinea pig aortic strips at 10E-4 mol/L concentration was determined; type: functional; details: Aorta
# Cavia porcellus [5] = species: Cavia porcellus; test: Calcium antagonist potency on K+ depolarized guinea pig aortic strips; type: functional; details: Aorta
# [6] = molecular target: T1, Voltage-gated L-type calcium channel (Rattus norvegicus, UniProt P22002+Q02485+P27732); test: Displacement of [3H]nitrendipine from calcium channel receptors (CCRs); type: protein assay
# [7] = molecular target: T1, Voltage-gated L-type calcium channel; test: Inhibitory constant against calcium channel receptors (CCRs); type: protein assay
# [8] = molecular target: T1, Voltage-gated L-type calcium channel; test: Displacement of [3H]nitrendipine from calcium channel receptors (CCRs) from rat cortex homogenate
# [9] = molecular target: T1, Voltage-gated L-type calcium channel; test: Inhibitory constant against calcium channel receptors (CCRs) from rat cortex homogenate
IC50 (Cavia porcellus [5]) [nM],IC50 [6] [nM],Ki [7] [nM],IC50 [8] [nM],Ki [9] [nM],Structure (SMILES),Decrease (Cavia porcellus [1]) [%],Decrease (Cavia porcellus [2]) [%],ED50 (Cavia porcellus [3]) [uM l-1],inhibition at 100 µM (Cavia porcellus [4]) [%]
16600,1800,675,,,COc1ccc(C2Sc3ccccc3N3C(=O)CCC23)cc1 (stereo unspecified),39,60,1.2,32
20000,,,0.78,0.29,O=C1CCC2C(c3ccccc3)Sc3ccccc3N12 (stereo unspecified),20,66,0.23,37
32400,1550,581,,,CC(=O)OC1=C(c2ccccc2)Sc2ccccc2N2C(=O)CCC12 (stereo unspecified),27,96,1.1,26
2600,,,,,COc1ccc([C@@H]2Sc3ccccc3N(CCN(C)C)C(=O)[C@@H]2OC(C)=O)cc1 [DILTIAZEM],94,78,0.79,88
